According to patent publication US7705203B2, “Benzoate inductible promoters” (Purdue Research Foundation, priority 2002, dated 2010):
Entries after “also recorded” stand apart in the source; their conditions may differ.

Legend:
[1] = tested on: GAD1 and GAD11 genes; assay: RT-PCR expression of GAD1 and GAD11 genes in response to benzoic acid; format: cell-based, A. niger; conditions: 8 mM benzoic acid for 5 h
Method: Total RNA was extracted from uninduced and benzoic acid-induced A. niger mycelia as described earlier, and approximately 1 μg was used to synthesize first strand cDNAs with the SuperScript First-strand Synthesis System for RT-PCR (Invitrogen, Carlsbad, Calif.). The reaction was carried out in the presence of 0.5 μg of an oligo(dT) primer, 0.5 mM dNTP mix, 5 mM MgCl2, 10 mM DTT, 1× RT buffer (20 mM Tris.HCl pH 8.4, 50 mM KCl), RNAseOUT™ RNAse inhibitor, and 50 U of SuperScript™ II Reverse Transcriptase. Tubes were incubated at 42° C. for 50 min, after which the reaction was terminated at 70° C. for 15 min. RNAse H was added, and tubes were incubated for an additional 20 min at 37° C. Double-stranded cDNAs were amplified by PCR using Red Taq DNA Polymerase (Sigma-Aldrich, St. Louis, Mo.), dNTP's, and gene specific primers: GAD1F (5′-[…]-3′, SEQ ID NO:30), GAD1R (5′-[…]-3′, SEQ ID NO:31), GAD11F (5′-[…]-3′, SEQ ID NO:32), and GAD11R (5′-[…]-3′, SEQ ID NO:33). PCR amplification consisted of a denaturation step at 94° C. for 5 min, followed by 30 cycles, each of denaturation at 94° C. for 45 sec, annealing at 56° C. for 30 sec, and extension at 72° C. for 1 min. A final extension step at 72° C. for 10 min was also included. Amplified cDNAs were separated on a 0.8% agarose gel containing EtBr, and bands were visualized under UV light.

[2] = tested on: bphA gene promoter; assay: bphA promoter-GFP fusions, benzoic acid-dependent GFP expression; format: cell-based, Aspergillus nidulans strain GR5; conditions: 8 mM benzoic acid, 5 hours; full promoter (1.8 kbp) and FR6 (0.4 kbp)
Method: In order to determine the minimal promoter length capable of retaining benzoic acid inducibility, promoter fusions to the Green Fluorescent Protein (GFP) gene were prepared. The full bphA promoter and shorter versions of it were PCR amplified using primers BPHPFwd (5′-[…]-3′, SEQ ID NO:19), BPHFR6 (5′-[…]-3′, SEQ ID NO:20), BPH331 (5′-[…]-3′, SEQ ID NO:21), and BPHPRev (5′-[…]-3′, SEQ ID NO:22). These primers introduced HindIII restriction sites (underlined) at both ends, which allowed cloning of the fragments upstream of the GFP gene contained within the pEBFP vector (Clontech, Palo Alto, Calif.).
The promoter-GFP fusions were called pBPH-1847-GFP, pBPH-531-GFP, and pBPH331-GFP, respectively. The selectable marker Pyr4 gene from Neurospora crassa, driven by its own promoter, was used to select putative A. nidulans transformed clones. The selectable marker was PCR-amplified from the pBS-Pyr4 vector using primers PyrEcoF (5′-[…]-3′, SEQ ID NO:23), and PyrEcoR (5′-[…]-3′, SEQ ID NO:24), which introduced EcoRI restriction sites (underlined) on both ends of the product. […]
Aspergillus nidulans GR5 protoplasts were prepared according to Aramayo and Timberlake ((1993) EMBO J. 12: 2039-2048), with some modifications. […] Concentration of protoplasts was determined using a hemacytometer, and adjusted to 10^8 protoplasts per mL. […]

[3] = tested on: bzuA; assay: RNA blots of bzuA expression; format: cell-based, A. nidulans; conditions: benzoic acid in the media
Description: On the other hand, while N. crassa also contains a bphA homolog, there is no current information available as to its response to benzoic acid.

For O=C(O)c1ccccc1 [benzoic acid], the “expression of GAD1” value [1] was “expressed constitutively; also recorded: constitutive”, the “expression of GAD11” value [1] was “slightly downregulated; also recorded: slightly down-regulated” and the “GFP expression from bphA promoter-GFP fusions” value [2] was “able to induce GFP expression only in the presence of the inducer”. The “expression of bzuA” value [3] was “upregulated”.
